What all share (assay): Antimicrobial activity, agar diffusion assay
Type in all cases: cell-based

For one test, the system named is B. subtilis (+ve). The conditions noted are these: for A %: Cip. = 100. The protocol: (§1) All reagents and solvents used in these studies were purchased from Sigma and used without purification. Melting points (MP) were measured on the Gallenkamp apparatus in degrees centigrade. The IR spectra (KBr, λmax·cm^−1) were recorded on a Mattson spectrophotometer (5000 FTIR) at King Faisal University. The ^1H & ^13C NMR spectra were measured using Varian Spectrophotometer (400 MHz), employing DMSO-d6 as the solvent and TMS internal standard at Mansoura University. The chemical shifts (δ, ppm) were recorded regarding the solvent residual peaks. GC-MS-QP-100 EX Shimadzu apparatus was used for mass measurements at Cairo University. All biological tests were carried out at the Faculty of Pharmacy, Mansoura University. All cell lines and microorganisms were purchased from the VACSERA Company (ATCC), Cairo, Egypt. DPPH and ABTS probes were obtained from Sigma.
(§2) In General, the diaryl diselenide B manifested promising antimicrobial activity against E. coli (A %=83%), S. aureus (A %=86%), and C. Albicans (A %=88%).

In another test the test system is E. coli (−ve). The conditions noted are these: for A %: Cip. = 100. The protocol: as §1, §2
The subject of the next test is P. aeruginosa (−ve). The conditions noted are these: for A %: Cip. = 100. The protocol:
as §1, §2

The next test has as its system S. aureus (+ve). The conditions noted are these: for A %: Cip. = 100. The protocol: as §1, §2
Another test concerns A. flavus. The protocol: as §1, §2
Another test relates to C. albicans. The conditions noted are these: for A %: Col. = 100. The protocol:
as §1, §2

Several values for one entry are separate records, joined by “and”; a condition that tells them apart may be missing. Equal entries are not always repeated.

On to `O=C(O)c1cn(C2CC2)c2cc(N3CCNCC3)c(F)cc2c1=O` [Cip., reference compound], for which the “IZD (agar diffusion assay diameter)” value with B. subtilis (+ve) is on record as 23 mm; in the test on E. coli (−ve) it was 26 mm; in the test with P. aeruginosa (−ve), 23 mm; in the test with S. aureus (+ve), 24 mm. In addition, the A % with B. subtilis (+ve), in the test with E. coli (−ve), in the test with P. aeruginosa (−ve) and with S. aureus (+ve) was 100% each time.

For `Nc1ccc([Se][Se]c2ccc(N)cc2)cc1` [Compound A], the “IZD (agar diffusion assay diameter)” value with A. flavus is given as 8 mm; with B. subtilis (+ve), 15 mm; in the test on C. albicans, 12 mm; in the test with E. coli (−ve), 14 mm; in the test with P. aeruginosa (−ve) it was 11 mm; in the test with S. aureus (+ve), 17 mm. The A % in the test with A. flavus (Col. = 100) is 32%; with B. subtilis (+ve), 65%; in the test on C. albicans, 44%; with E. coli (−ve), 54% and 62% and 65%; in the test with P. aeruginosa (−ve), 48%; in the test on S. aureus (+ve), 71%.

On to `COC(=O)c1cc([Se][Se]c2ccc(N)c(C(=O)OC)c2)ccc1N` [Compound B, dimethyl 5,5-diselanediylbis(2-aminobenzoate)], for which the “IZD (agar diffusion assay diameter)” value in the test on C. albicans was determined as 21 mm; in the test with E. coli (−ve), 19 mm; in the test with S. aureus (+ve), 18 mm. In addition, the values for the A % in the test with C. albicans, with E. coli (−ve) and with S. aureus (+ve) were 88%, 83% and 86%, respectively.

For the origin of these results see patent US20250064756A1, “NANOCRYSTALLINE TIO2 AND ZNO ORGANOSELENIUM SCAFFOLDS POSSESING DISELENIDE (SE-SE) FUNCTIONALITY FOR BIOMEDICAL TECHNOLOGY” (KING FAISAL UNIVERSITY, priority 2023, published 2025).
